Tests used:
Assay type in all cases: cell-based, Pseudomonas aeruginosa
[1] = test system: P. aeruginosa strain PAR 20; experiment: Number of viable bacteria in early and mature biofilm (viable count)
Protocol: (§1) Biofilm formation and the number of viable bacteria were checked in parallel in the following time intervals: 0, 0.5, 8, 24, 48 hours, in accordance with the procedure described above. Biofilm thickness was estimated by staining it with Cango Red and measuring optical density while number of viable bacteria was performed using the standard viable count method. (Allison G C, Sutherland I W. A staining technique for bacteria and its correlation to extracellular carbohydrate production. J Microbiol Meth 2, 93-99 (1984)).
(§2) After the addition of iminosugars (compounds 1, 2, 3 and 4), the biofilm formation and the number of viable bacteria were checked in the following time intervals: 48, 48.5, 56, 72, 96 hours.
(§3) Numbers of viable bacteria contained in the early and mature biofilm were estimated on separate plates with wells filled with tested P. aeruginosa strains as described above (PAR 5, PAR 20, PAR 50).
(§4) At the same time intervals, biofilm content in each well was removed and mixed by multiple pippeting and transferred to sterile tubes. Then decimal dilutions of the bacterial suspension were made in TSB broth, plated on McConkey Agar (Oxoid), and incubated at 37° C. for 24 hours.
(§5) Numbers of colonies grown on platter were counted and total numbers of the viable bacteria calculated as colony forming units (CFU) per ml.
(§6) The results depict logs of CFU/ml for three P. aeruginosa strains: PAR 5, PAR 20 and PAR 50 measured at different time intervals (0 hours, 8 hours, 24 hours, 48 hours, 56 hours, 72 hours and 96 hours). The detection limit is 100 CFU/ml.

[2] = test system: P. aeruginosa strain PAR 50; experiment: as above
Protocol: as §1, §2, §3, §4, §5, §6

[3] = test system: P. aeruginosa strain PAR 5; experiment: as above
Protocol: as §1, §2, §3, §4, §5, §6

[4] = test system: P. aeruginosa strain PAR 5 biofilm; experiment: Mature biofilm model, Congo red staining; settings: for absorbance (Congo red, biofilm development): mature biofilm, compound added 48 h after induction of biofilm
Protocol: (§7) Biofilm quantity was determined using Congo red dye according to a modified procedure described by Allison et al. (Allison G C, Sutherland I W. A staining technique for bacteria and its correlation to extracellular carbohydrate production. J Microbiol Meth 2, 93-99 (1984)).
(§8) Briefly, at different time points (0, 6, 18, 24, 48 and 72 hours), the culture medium was gently removed from wells by using the pipette and immediately 200 μl of 0.1% Congo red solution was added. The plates were left for 30 minutes at room temperature and then 10 minutes before the end of staining, the plate was centrifuged for 10 minutes at 2000 rpm and then washed twice with buffered saline to remove unbound dye. Absorbance was measured at λ=492 nm wavelength using spectrophotometer (Awarness Technology Inc., Palm City, Fla., USA). All measurements were performed in triplicates and mean values±SD are given.
(§9) Mature biofilm model: the tested substances were added 48 hours after adherence of bacteria to the wells in a 96-well plate. The growth conditions of P. aeruginosa were exactly the same, as described above for the early biofilm model.
as §2

[5] = test system: P. aeruginosa strain PAR 20 biofilm; experiment: Mature biofilm model, Congo red staining; settings: for absorbance (Congo red, biofilm development): mature biofilm, compound added 48 h after induction of biofilm
Protocol: as §7, §8, §9, §2

[6] = test system: P. aeruginosa strain PAR 50 biofilm; experiment: Mature biofilm model, Congo red staining; settings: for absorbance (Congo red, biofilm development): mature biofilm, compound added 48 h after induction of biofilm
Protocol: as §7, §8, §9, §2

[7] = test system: P. aeruginosa strain PAR 5 biofilm; experiment: Reduction of biofilm growth (percent vs culture control)
From the text: FIG. 4A represents the effect of the tested compounds (1, 2, 3 and 4) on exopolysaccharide biosynthesis in the early stages and mature P. aeruginosa biofilm formation, strain PAR 5. The abscissa represents the time (in hours) in order to differentiate early biofilm and mature biofilm, and the ordinate represents the percentage of the biofilm reduction.
(§10) Early biofilm model: formation of early biofilm under influence of the tested substances was observed by filling wells of a 96-well plate with 20 μl of P. aeruginosa suspension and 180 μl of TSB, as described above. Tested iminosugars (compounds 1, 2, 3 and 4) were added immediately after setting-up the bacteria at a final concentration of 0.9 mM. Then, the plate was gently mixed and incubated for 48 hours at 37° C.
as §9
(§11) The effect of the tested compounds (1, 2, 3 and 4) on the reduction of biofilm growth has also been studied on the three P. aeruginosa strains PAR 5, PAR 20, PAR 50.
(§12) (Percent decrease in biofilm thickness was obtained as a mean value from 3 consecutive measurements of the Congo Red stained biofilm using spectrophotometer after addition of the tested iminosugars in comparison to control regarded as 100%).

[8] = test system: P. aeruginosa strain PAR 50 biofilm; experiment: as above
From the text: FIG. 4C represents the effect of the tested compounds (1, 2, 3 and 4) on exopolysaccharide biosynthesis in the early stages and mature P. aeruginosa biofilm formation, strain PAR 50. The abscissa represents the time (in hours) in order to differentiate early biofilm and mature biofilm, and the ordinate represents the percentage of the biofilm reduction.
as §10, §9, §11, §12

[9] = test system: P. aeruginosa strain PAR 5 biofilm; experiment: Early biofilm model, Congo red staining; settings: for absorbance (Congo red, biofilm formation): 0.9 mM, 492 nm
Protocol: (§13) P. aeruginosa biofilm was set-up in sterile plastic 96-well plates with adherent surface (Greiner Bio-One, USA).
(§14) Twenty microliter quantities of the bacterial stock suspensions, prepared as described above, were added to each well followed with 180 μl of sterile TSB. Final concentration of the bacteria was 1×10^8 CFU/ml.
(§15) The plates were centrifuged for 10 minutes at 2000 rpm to sediment bacteria on the bottom of each well and then incubated for 72 hours (37° C., aerobic conditions).
as §7, §8, §10, §1
(§16) P. aeruginosa suspension cultures in TSB broth alone were used as a control.

[10] = test system: P. aeruginosa strain PAR 20 biofilm; experiment: Early biofilm model, Congo red staining; settings: for absorbance (Congo red, biofilm formation): early biofilm, 0.9 mM, 492 nm
Protocol: as §13, §14, §15, §7, §8, §10, §1, §16

[11] = test system: P. aeruginosa strain PAR 50 biofilm; experiment: Early biofilm model, Congo red staining; settings: for absorbance (Congo red, biofilm formation): early biofilm, 0.9 mM, 492 nm
Protocol: as §13, §14, §15, §7, §8, §10, §1, §16

[12] = test system: P. aeruginosa strain PAR 20 biofilm; experiment: Reduction of biofilm growth (percent vs culture control)
From the text: FIG. 4B represents the effect of the tested compounds (1, 2, 3 and 4) on exopolysaccharide biosynthesis in the early stages and mature P. aeruginosa biofilm formation, strain PAR 20. The abscissa represents the time (in hours) in order to differentiate early biofilm and mature biofilm, and the ordinate represents the percentage of the biofilm reduction.
as §10, §9, §11, §12

[13] = in comparison with culture control

## COc1ccc(C[C@@H]2CCC[C@@H]3[C@H](O)[C@@H](O)[C@H](CO)N23)cc1 [Compound 3, (1S,2S,3S,5S,9R)-1,2-dihydroxy-3-hydroxymethyl-5-p-methoxybenzylindolizidine]
[1]; early biofilm, 0 h
  number of viable P. aeruginosa: 5 × 10^6 CFU/ml
[1]; early biofilm, 8 h
  number of viable P. aeruginosa: 3 × 10^7 CFU/ml
[1]; early biofilm, 24 h
  number of viable P. aeruginosa: 5 × 10^8 CFU/ml
[1]; early biofilm, 48 h
  number of viable P. aeruginosa: 3 × 10^9 CFU/ml
[1]; mature biofilm, 56 h
  number of viable P. aeruginosa: 3 × 10^8 CFU/ml
[1]; mature biofilm, 72 h
  number of viable P. aeruginosa: 7 × 10^7 CFU/ml
[1]; mature biofilm, 96 h
  number of viable P. aeruginosa: 7 × 10^7 CFU/ml
[2]; early biofilm, 0 h
  number of viable P. aeruginosa: 4 × 10^7 CFU/ml
[2]; early biofilm, 8 h
  number of viable P. aeruginosa: 1 × 10^8 CFU/ml
[2]; early biofilm, 24 h
  number of viable P. aeruginosa: 6 × 10^8 CFU/ml
[2]; early biofilm, 48 h
  number of viable P. aeruginosa: 6 × 10^8 CFU/ml
[2]; mature biofilm, 56 h
  number of viable P. aeruginosa: 4 × 10^8 CFU/ml
[2]; mature biofilm, 72 h
  number of viable P. aeruginosa: 5 × 10^9 CFU/ml
[2]; mature biofilm, 96 h
  number of viable P. aeruginosa: 8 × 10^9 CFU/ml
[3]; early biofilm, 0 h
  number of viable P. aeruginosa: 6 × 10^6 CFU/ml
[3]; early biofilm, 8 h
  number of viable P. aeruginosa: 4 × 10^7 CFU/ml
[3]; early biofilm, 24 h
  number of viable P. aeruginosa: 1 × 10^7 CFU/ml
[3]; early biofilm, 48 h
  number of viable P. aeruginosa: 2 × 10^6 CFU/ml
[3]; mature biofilm, 56 h
  number of viable P. aeruginosa: 3 × 10^8 CFU/ml
[3]; mature biofilm, 72 h
  number of viable P. aeruginosa: 2 × 10^8 CFU/ml
[3]; mature biofilm, 96 h
  number of viable P. aeruginosa: 1 × 10^9 CFU/ml
[4]
  influence on mature biofilm formation: weak influence
[4]; 48 hours
  absorbance (Congo red, biofilm development): about 0.75 a.u.
[4]; 56 hours
  absorbance (Congo red, biofilm development): about 1.25 a.u.
[4]; 72 hours
  absorbance (Congo red, biofilm development): about 1.25 a.u.
[4]; 96 hours
  absorbance (Congo red, biofilm development): about 1.25 a.u.
[5]
  influence on mature biofilm formation: weak influence
[5]; 48 hours
  absorbance (Congo red, biofilm development): about 0.6 a.u.
[5]; 56 hours
  absorbance (Congo red, biofilm development): about 1.1 a.u.
[5]; 72 hours
  absorbance (Congo red, biofilm development): about 0.75 a.u.
[5]; 96 hours
  absorbance (Congo red, biofilm development): about 1.5 a.u.
[6]
  influence on mature biofilm formation: weak influence
[6]; 48 hours
  absorbance (Congo red, biofilm development): about 1.25 a.u.
[6]; 56 hours
  absorbance (Congo red, biofilm development): about 1.0 a.u.
[6]; 72 hours
  absorbance (Congo red, biofilm development): about 2.0 a.u.
[6]; 96 hours
  absorbance (Congo red, biofilm development): about 2.5 a.u.
[7]; 8 hours of incubation
  reduction of biofilm growth: about 90%
[7]; 24 hours of incubation
  reduction of biofilm growth: about 90%
[7]; 48 hours of incubation
  reduction of biofilm growth: about 25%
[7]; 72 hours of incubation
  reduction of biofilm growth: about 10%
[7]; notably an early biofilm
  effect on biofilm growth: can reduce the biofilm growth
[8]; 8 hours of incubation
  reduction of biofilm growth: about 45%
[8]; 24 hours of incubation
  reduction of biofilm growth: about 45%
[8]; 48 hours of incubation
  reduction of biofilm growth: about 5%
[8]; 72 hours of incubation
  reduction of biofilm growth: about 20%
[8]; notably an early biofilm
  effect on biofilm growth: can reduce the biofilm growth
[9]; early biofilm
  biofilm formation at 8 hours, 24 hours and 48 hours: no biofilm formation
[9]; early biofilm, 8 hours
  absorbance (Congo red, biofilm formation): about 0.25 a.u.
[9]; early biofilm, 24 hours
  absorbance (Congo red, biofilm formation): about 0.25 a.u.
[9]; early biofilm, 48 hours
  absorbance (Congo red, biofilm formation): about 0.25 a.u.
[9]; [13]
  effect on formation of an early biofilm: inhibit the formation of an early biofilm
[10]; 8 hours
  absorbance (Congo red, biofilm formation): about 0.75 a.u.
[10]; 24 hours
  absorbance (Congo red, biofilm formation): about 0.7 a.u.
[10]; 48 hours
  absorbance (Congo red, biofilm formation): about 0.7 a.u.
[10]; [13]
  effect on formation of an early biofilm: inhibit the formation of an early biofilm
[11]; 8 hours
  absorbance (Congo red, biofilm formation): about 0.8 a.u.
[11]; 24 hours
  absorbance (Congo red, biofilm formation): about 0.25 a.u.
[11]; 48 hours
  absorbance (Congo red, biofilm formation): about 0.25 a.u.
[11]; [13]
  effect on formation of an early biofilm: inhibit the formation of an early biofilm
[12]; 8 hours of incubation
  reduction of biofilm growth: about 50%
[12]; 24 hours of incubation
  reduction of biofilm growth: about 60%
[12]; 48 hours of incubation
  reduction of biofilm growth: about 0%
[12]; 72 hours of incubation
  reduction of biofilm growth: about 20%
[12]; notably an early biofilm
  effect on biofilm growth: can reduce the biofilm growth

Reference: patent US10745395B2, “Compounds for their use as drugs for the treatment and/or the prevention of infection(s) caused by biofilm-forming bacteria” (CENTRE NATIONAL DE LA RECHERCHE SCIENTIFIQUE, priority 2014, dated 2020)
